Assay results published in US11098041B2 (Merck Patent GmbH, priority 2014, dated 2021).

Biological target: full-length human BTK (Homo sapiens (Human), UniProt Q06187)
Test: Assay A: microfluidic off-chip mobility shift assay against BTK enzyme
Type: biochemical
Protocol: Assay A: Microfluidic Off-Chip Mobility Shift Assay Protocol for Potency Assessment Against BTK Enzyme
The protocol below describes microfluidic, off-chip mobility shift kinase assay to measure inherent potency of compounds against BTK enzyme.
5 uL of enzyme buffer and 7.5 uL of ATP/kinKDR peptide substrate mix were added to Matrix (#115304) 384-well, sterile, polypropylene plates (Thermo Fisher Scientific, Hudson, N.H.) with 125 nL of serially diluted compounds prepared in 100% DMSO, and incubated for 90 min. at 27° C. Following the incubation period, reactions were stopped by adding 60 uL stop buffer consisting of 100 mM HEPES, pH 7.5, 0.015% Brij-35 (30%), 0.277% Coating Reagent #3 (Caliper Life Sciences, Mountain View, Calif.), 5% DMSO. Stopped reactions were monitored at −2 PSI, −3000 V/−700 V in a LabChip 3000 plate reader from Caliper Life Sciences, a PerkinElmer Company (Hopkinton, Mass.), and the activity was measured by off-chip mobility shift assay measuring the charge/mass difference between substrate and product resulting from peptide phosphorilation. IC50 and efficacy were determined by plotting log [Inhibitor] vs. % Activity in GeneData Screener (Basel. Switzerland).

Sequence of full-length human BTK (Q06187 whole entry): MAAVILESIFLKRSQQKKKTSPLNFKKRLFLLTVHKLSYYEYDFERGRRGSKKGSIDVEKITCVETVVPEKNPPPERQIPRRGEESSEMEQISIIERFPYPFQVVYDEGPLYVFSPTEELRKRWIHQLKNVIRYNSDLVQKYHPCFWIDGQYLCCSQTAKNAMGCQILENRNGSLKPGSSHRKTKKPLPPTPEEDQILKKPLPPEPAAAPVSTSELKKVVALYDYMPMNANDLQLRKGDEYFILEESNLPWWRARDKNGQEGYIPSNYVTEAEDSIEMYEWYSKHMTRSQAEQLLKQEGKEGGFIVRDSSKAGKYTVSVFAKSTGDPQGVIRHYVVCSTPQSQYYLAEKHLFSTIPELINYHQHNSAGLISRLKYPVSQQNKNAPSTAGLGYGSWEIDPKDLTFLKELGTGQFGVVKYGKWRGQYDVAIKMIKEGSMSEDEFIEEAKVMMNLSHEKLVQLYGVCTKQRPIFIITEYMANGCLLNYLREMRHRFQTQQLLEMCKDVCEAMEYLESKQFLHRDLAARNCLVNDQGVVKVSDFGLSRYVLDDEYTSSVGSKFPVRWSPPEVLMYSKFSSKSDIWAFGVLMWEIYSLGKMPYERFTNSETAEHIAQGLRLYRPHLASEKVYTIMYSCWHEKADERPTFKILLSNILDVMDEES

SMILES | IC50 [nM]
CC(C)(C)OC(=O)N1CC=C(c2nc3c(-c4ccc(CNC(=O)c5noc(C(C)(C)C)n5)c(F)c4)ccnc3[nH]2)CC1 [Example 137, tert-butyl 4-(7-(4-((5-(tert-butyl)-1,2,4-oxadiazole-3-carboxamido)methyl)-3-fluorophenyl)-3H-imidazo[4,5-b]pyridin-2-yl)-5,6-dihydropyridine-1(2H)-carboxylate] | < 100
Cn1cc(-c2nc3c(-c4ccc(CNS(=O)(=O)CC5CCCS(=O)(=O)C5)c(F)c4)ccnc3[nH]2)cn1 (stereo not drawn) [Example 179, 1-(1,1-dioxidotetrahydro-2H-thiopyran-3-yl)-N-(2-fluoro-4-(2-(1-methyl-1H-pyrazol-4-yl)-3H-imidazo[4,5-b]pyridin-7-yl)benzyl)methanesulfonamide] | > 5000
Cc1ccc(-n2ccn(-c3cccc(-c4ccnc5[nH]c(-c6ccc(C(=O)N7CCOCC7)cc6)nc45)c3CO)c2=O)cc1 [Example 96, 1-[2-(Hydroxymethyl)-3-(2-[4-[(morpholin-4-yl)carbonyl]phenyl]-3H-imidazo[4,5-b]pyridin-7-yl)phenyl]-3-(4-methylphenyl)-2,3-dihydro-1H-imidazol-2-one] | 100 to 1000
CN1CCC(c2ccc(-c3nc4c(-c5ccc(CNC(=O)c6noc(C(C)(C)C)n6)c(F)c5)ccnc4[nH]3)nc2)CC1 [Example 169, 5-tert-butyl-N-[(2-fluoro-4-[2-[5-(1-methylpiperidin-4-yl)pyridin-2-yl]-3H-imidazo[4,5-b]pyridin-7-yl]phenyl)methyl]-1,2,4-oxadiazole-3-carboxamide] | < 100
Cn1cc(-c2nc3c(-c4ccc(CNS(=O)(=O)CCC5CCC5)c(F)c4)ccnc3[nH]2)cn1 [Example 178, 2-cyclobutyl-N-(2-fluoro-4-(2-(1-methyl-1H-pyrazol-4-yl)-3H-imidazo[4,5-b]pyridin-7-yl)benzyl)ethanesulfonamide] | 1000 to 5000
CC(C)(C)c1nc(C(=O)NCc2ccc(-c3ccnc4[nH]c(-c5ccc(N6CCC(F)CC6)cn5)nc34)cc2F)no1 [Example 167, 5-tert-butyl-N-[(2-fluoro-4-[2-[5-(4-fluoropiperidin-1-yl)pyridin-2-yl]-3H-imidazo[4,5-b]pyridin-7-yl]phenyl)methyl]-1,2,4-oxadiazole-3-carboxamide] | < 100
CC(C)(C)c1noc(C(=O)NCc2ccc(-c3ccnc4[nH]c(-c5ccc(N6CCCCC6)cn5)nc34)cc2F)n1 [Example 157, 3-tert-Butyl-N-[(2-fluoro-4-[2-[5-(piperidin-1-yl)pyridin-2-yl]-3H-imidazo[4,5-b]pyridin-7-yl]phenyl)methyl]-1,2,4-oxadiazole-5-carboxamide] | < 100
Cc1cc(-c2ccnc3[nH]c(-c4ccc(OCC(O)CO)cn4)nc23)ccc1CN1CCOc2cc(C3CC3)cc(F)c2C1=O (stereo not drawn) [Example 170, 8-cyclopropyl-4-[(4-[2-[5-(2,3-dihydroxypropoxy)pyridin-2-yl]-3H-imidazo[4,5-b]pyridin-7-yl]-2-methylphenyl)methyl]-6-fluoro-2,3,4,5-tetrahydro-1,4-benzoxazepin-5-one] | < 100
Cn1cc(-c2nc3c(-c4ccc(CN5CCOc6cc(C7CC7)cc(F)c6C5=O)nc4)ccnc3[nH]2)cn1 [Example 171, 8-cyclopropyl-6-fluoro-4-([5-[2-(1-methyl-1H-pyrazol-4-yl)-3H-imidazo[4,5-b]pyridin-7-yl]pyridin-2-yl]methyl)-2,3,4,5-tetrahydro-1,4-benzoxazepin-5-one] | < 100
CN(C)c1ccc(-c2nc3c(-c4ccc(CNC(=O)c5nnc(C(C)(C)C)o5)c(F)c4)ccnc3[nH]2)nc1 [Example 172, 5-tert-butyl-N-[(4-[2-[5-(dimethylamino)pyridin-2-yl]-3H-imidazo[4,5-b]pyridin-7-yl]-2-fluorophenyl)methyl]-1,3,4-oxadiazole-2-carboxamide] | < 100
Cc1ccc(S(=O)(=O)NCc2ccc(-c3ccnc4[nH]c(-c5cnn(C)c5)nc34)cc2F)cc1 [Example 175, N-(2-fluoro-4-(2-(1-methyl-1H-pyrazol-4-yl)-3H-imidazo[4,5-b]pyridin-7-yl)benzyl)-4-methylbenzenesulfonamide] | > 5000
Cn1cc(-c2nc3c(-c4ccc(CNCc5ccc(C(C)(C)C)cc5)c(F)c4)ccnc3[nH]2)cn1 [Example 181, N-(4-(tert-butyl)benzyl)-1-(2-fluoro-4-(2-(1-methyl-1H-pyrazol-4-yl)-3H-imidazo[4,5-b]pyridin-7-yl)phenyl)methanamine] | > 5000
Cn1cc(-c2nc3c(-c4ccc(CNCc5cccc(C(C)(C)C)c5)c(F)c4)ccnc3[nH]2)cn1 [Example 180, N-(3-(tert-butyl)benzyl)-1-(2-fluoro-4-(2-(1-methyl-1H-pyrazol-4-yl)-3H-imidazo[4,5-b]pyridin-7-yl)phenyl)methanamine] | > 5000

Further lines, results first:

IC50 [nM] | SMILES
> 5000 | Cn1cc(-c2nc3c(-c4ccc(CNS(C)(=O)=O)c(F)c4)ccnc3[nH]2)cn1 [Example 176, N-(2-fluoro-4-(2-(1-methyl-1H-pyrazol-4-yl)-3H-imidazo[4,5-b]pyridin-7-yl)benzyl)methanesulfonamide]
1000 to 5000 | Cn1cc(-c2nc3c(-c4ccc(CNS(=O)(=O)CC5(CC#N)CC5)c(F)c4)ccnc3[nH]2)cn1 [Example 177, 1-(1-(cyanomethyl)cyclopropyl)-N-(2-fluoro-4-(2-(1-methyl-1H-pyrazol-4-yl)-3H-imidazo[4,5-b]pyridin-7-yl)benzyl)methanesulfonamide]
< 100 | Cn1cc(-c2nc3c(-c4ccc(C5(NC(=O)c6nnc(C(C)(C)C)o6)CC5)cc4)ccnc3[nH]2)cn1 [Example 97, 5-tert-Butyl-[1,3,4]oxadiazole-2-carboxylic acid (1-{4-[2-(1-methyl-1H-pyrazol-4-yl)-3H-imidazo[4,5-b]pyridin-7-yl]-phenyl}-cyclopropyl)-amide]
> 5000 | Cn1cc(-c2nc3c(-c4ccc5c(c4)CCN(C(=O)c4nc(C(C)(C)C)no4)C5)ccnc3[nH]2)cn1 [Example 154, (3-tert-Butyl-[1,2,4]oxadiazol-5-yl)-{6-[2-(1-methyl-1H-pyrazol-4-yl)-3H-imidazo[4,5-b]pyridin-7-yl]-3,4-dihydro-1H-isoquinolin-2-yl}-methanone]
1000 to 5000 | Cn1cc(-c2nc3c(-c4cccc(CNC(=O)c5noc(C(C)(C)C)n5)c4)ccnc3[nH]2)cn1 [Example 87, 5-tert-Butyl-N-([3-[2-(1-methyl-1H-pyrazol-4-yl)-3H-imidazo[4,5-b]pyridin-7-yl]phenyl]methyl)-1,2,4-oxadiazole-3-carboxamide]
> 5000 | Cn1cc(-c2nc3c(-c4ccc(CNCc5cccnc5)c(F)c4)ccnc3[nH]2)cn1 [Example 173, N-(2-fluoro-4-(2-(1-methyl-1H-pyrazol-4-yl)-3H-imidazo[4,5-b]pyridin-7-yl)benzyl)-1-(pyridin-3-yl)methanamine]
1000 to 5000 | NCc1ccc(-c2ccnc3[nH]c(-c4cnn(C5CCC5)c4)nc23)cc1F [Example 188, 4-[2-(1-Cyclobutyl-1H-pyrazol-4-yl)-3H-imidazo[4,5-b]pyridin-7-yl]-2-fluoro-benzylamine]
> 5000 | Cn1cc(-c2nc3c(-c4ccc(CNCc5ccc(F)c(F)c5)c(F)c4)ccnc3[nH]2)cn1 [Example 174, N-(3,4-difluorobenzyl)-1-(2-fluoro-4-(2-(1-methyl-1H-pyrazol-4-yl)-3H-imidazo[4,5-b]pyridin-7-yl)phenyl)methanamine]
